Measured values taken from patent US5157052A, “Method for inhibiting IgE production” (priority 1990, dated 1992).

Experiments:
IgE [1] = assay: Serum IgE response induced by FF1-4D5 + H∂A1 anti-IgD antibodies (ELISA, Assay A / Assay F); assay type: in vivo, mouse (Balb/c female); settings: 20 μg days 3 and 4
Method: Mouse hybridoma cells expressing either FF1-4D5 antibody or H∂A1 antibody are thawed, established in culture, and incubated in mice as ascite tumors. FF1-4D5 antibody is a mouse IgG2a monoclonal antibody of the b allotype that binds the Fd fragment of the ∂ chain of the a allotype IgD which activates β cells through antigen internalization and processing, promoting cognate interactions with antigen-specific T cells (D. K. Goroff et al., J. Immunol. 136: 2382 (1986)). H∂A1 antibody is a mouse IgG2b of the b allotype that binds the Fc fragment of the ∂ chain of the a allotype IgD which activates β cells through crosslinking IgD (I. M. Zitron and B. L. Clevinger, J. Exp. Med. 152: 1135 (1980)). Each antibody is purified from their respective ascites tumor fluid. […] Serum from the injected mice is recovered and the mean concentration of IgE determined.
Serum levels of IgE are determined and IgE levels are shown to be inhibited in a dose dependent manner.
ELISA (enzyme linked immunosorbant assay) measurements of IgE are as follows. About 5 μg of B1E3 antibody in 100 μl borate buffered saline (pH8.5) is added to wells of a NuncImmulon II 96 well plate (DiRuscio & Assoc., St. Louis, Mo.) at 37° C. for 90 minutes. The non-bound antibody is removed by flicking the plate. Unreacted sites on the plastic plate are blocked by adding about 200 μl of a 2% solution of newborn bovine serum (NBS) in PBS at 37° C. for 60 minutes. The standard IgE (or an unknown murine serum sample) is diluted to between about 4 ng/ml-256 ng/ml in Hanks-HS (20 mM Hepes, 2% NBS in Hanks Balanced Salt Solution, Gibco, Grand Island, N.Y.) or to 1/200 to 1/1000 in Hanks-HS respectively. 100 μl of standard (or unknown dilutions) are added in triplicate to the wells of the plate and allowed to absorb to B1E3 antibody at about 37° C. for 2-4 hours. The solution is removed by flicking the plate and each well is washed with about 0.5 ml 0.05% Tween 20-PBS 5 times. About 100 μl of biotinylated R1E4, called the primary antibody, diluted to 200 ng/ml is added to all wells and incubated at about 4° C. overnight. The solution is removed by flicking the plate and washed 5 times as described above. The developing reagent (Avidin and biotin-horse radish peroxidase) is incubated in 2% NBS in PBS at ambient temperature for 30 minutes, according to manufacturer's specifications (Vector Laboratories, Burlingame, Calif.). About 100 μl of developing reagent is added to each well and incubated at ambient temperature for 30 minutes. Colorimetric substrate for the developing reagent (ABTS peroxidase substrate system, KPL, Gaithersburg, Md.) is prepared by mixing equal volumes of solutions A and B and incubating at ambient temperature for 60 minutes. The developing reagent solution is removed by flicking the plate and washed 5 times as described above. About 100 μl of the mixture of substrates is added to each well and incubated at ambient temperature for 60 minutes. The optical density of each well is determined on a BioTek ELISA reader (Biotek Instruments, Inc., Burlington, Vermont) and the absorbance data transferred electronically to a DEC VAX mainframe computer. A standard curve is fitted to the IgE standard optical densities using straight line, linear regression statistical fits. IgE in the unknown serum samples is determined by comparing the optical density of the unknown to the standard curve and multiplying that number by the dilution of serum used in the assay.
Stimulation of a transient serum IgE response in mouse with two monoclonal antibodies directed against IgD is carried out as follows.
Mouse hybridoma cells expressing either FF1-4D5 antibody or H∂Al antibody are thawed, established in culture, and incubated in CB6 F1 female mice as an ascites tumor and each immunoglobulin is purified from the ascites fluid as described above. […]

IgG3 = assay: Serum IgG3 in anti-IgD stimulated mice (two site sandwich ELISA, Assay D); assay type: in vivo, mouse (Balb/c female); settings: 20 μg days 3 and 4
IgE [2] = assay: ED50 for inhibition of IgE calculated from the examples; assay type: in vivo, mouse; settings: dose to achieve 50% inhibition of IgE
Method: From the data in the above examples, the effective dose of each prostaglandin to achieve 50% inhibition of IgE (ED50) was calculated.

[3] = Diarrheal effects in rats; settings: rat, in vivo, po
Method: Briefly, adult Charles River male rats weighing 210-230 g were individually housed and fasted with water available ad libitum for 24 hours prior to the test. The animals (N=6-12) received logarithmically graded prostaglandin doses orally. Immediately after administration, the animals were returned to their cages, and diarrhea, if any, was assessed on an all or none basis for 8 hours after drug treatment. The ED50 and relative potency values were calculated by the logistic method of Berkson.

[4] = Table 12, day 8 (control 11398)

SMILES | de novo IgE synthesis (IgE [1]; Example 25) | IgE ± SD (IgE [1]; Table 14, day 8 (control 6071)) | inhibition of IgG3 (IgG3; Example 25) | IgG3 ± SD (IgG3; Table 14, day 8 (control 1538)) | ED50 IgE Inhibition (IgE [2]) | TD50 at 8 h [3] | de novo IgE synthesis (IgE [1]; Example 23) | IgE ± SD (IgE [1]; [4]) | inhibition of IgG3 (IgG3; Example 23) | IgG3 ± SD (IgG3; Table 12, day 8 (control 584))
CCCCC(C)(O)C/C=C/[C@H]1[C@H](O)CC(=O)[C@@H]1CCCC(C)(C)CCC(=O)OC (mixture of isomers) [(±) methyl 11α,16-dihydroxy-4,4,16-trimethyl-9-oxoprost-13E-en-1-oate] | inhibit de novo IgE synthesis | < 800 ng/mL | not IgG1, IgG2a, IgG3 and IgM | 2103 ± 616 µg/mL | 1.5 μg/mouse/TID | 0.185 mg/kg |  |  |  | 
CCCCC(C)(O)C/C=C/[C@H]1[C@H](O)CC(=O)[C@@H]1CCC1CC1CCC(=O)OC (relative stereo) [(±) methyl 2-[2-[3R-3α-hydroxy-2β-(4-hydroxy-4-methyl-1E-octenyl)-5-oxo-1α-cyclopentyl]ethyl]cyclopropanepropanoate] |  |  |  |  | 1.0 μg/mouse/TID |  | inhibit de novo IgE synthesis | 3034 ± 878 ng/mL | not IgG1, IgG2a or IgG3 | 901 ± 213 µg/mL
CCCCC(C)(O)C/C=C/[C@H]1[C@H](O)CC(=O)[C@@H]1CC1CC1CCCC(=O)OC (relative stereo) [(±) methyl 2-[2-[3R-3α-hydroxy-2β-(4-hydroxy-4-methyl-1E-octenyl)-5-oxo-1α-cyclopentyl]methyl]cyclopropanebutanoate] |  |  |  |  | 9.0 μg/mouse/TID |  | inhibit de novo IgE synthesis | 2750 ± 318 ng/mL | not IgG1, IgG2a or IgG3 | 520 ± 39 µg/mL
